Reference: patent US8008288B2, “Anti-inflammatory A-aminocyclolactam compounds” (Cambridge Enterprise Limited, priority 2004, dated 2011)

How the values were obtained:
[1] = type: in vitro ADME, human
Description: As an approach to identifying such stable analogs, various derivatives of (S)-3-(undec-10-enoyl)-aminoglutarimide have been tested for their stability in serum.

[2] = system: MCP-1 induced leukocyte migration (THP-1 cells); assay: Inhibition of chemokine (MCP-1) induced leukocyte migration in vitro, transwell assay; type: cell-based, human
Experimental: In principle, this assay consists of two chambers separated by a porous membrane. The chemoattractant is placed in the lower compartment and the cells are placed in the upper compartment. After incubation for a period at 37° C. the cells move towards the chemoattractant, and the number of cells in the lower compartment is proportional to the chemoattractant activity (relative to a series of controls).
This assay can be used with a range of different leukocyte populations. For example, freshly prepared human peripheral blood leukocytes may used. Alternatively, leukocyte subsets may be prepared, including polymorphonuclear cells or lymphocytes or monocytes using methods well known to those skilled in the art such as density gradient centrifugation or magnetic bead separations. Alternatively; immortal cell lines which have been extensively validated as models of human peripheral blood leukocytes may be used, including, but not limited to THP-1 cells as a model of monocytes or Jurkat cells as model of naïve T cells.
The THP-1 cell line (European Cell culture Collection) were used as the leukocyte cell population.
The following procedure is used for testing the invention compounds for MCP-1 induced leukocyte migration:
First, the cell suspension to be placed in the upper compartment is prepared. […]

[3] = cited from earlier work

C=CCCCCCCCCC(=O)N[C@H]1CCC(=O)NC1=O [NR58,4, (S)-3-(undec-10-enoyl)-aminoglutarimide]
enzymatic ring opening of the aminoglutarimide ring in serum [1]: susceptible to enzymatic ring opening in serum

C=CCCCCCCCCC(=O)[C@@H]1CCCNC1=O [(S)-3-(undec-10-enoyl)-tetrahydropyridin-2-one]
potency compared with the parental molecule ([2]; parental molecule (S)-3-(undec-10-enoyl)-aminoglutarimide): considerably reduced potency | stability in human serum ([1]; human, 7 days): at least 7 days

O=C1NCCCC[C@@H]1NC(=O)C12CC3CC(CC(C3)C1)C2 [(S)-3-(adamantane-1-carbonylamino)azepin-2-one]
potency in vitro as broad-spectrum chemokine inhibitor (BSCI) ([2]; in vitro): sub-nanomolar

c(DCys-DGln-DIle-DTrp-DLys-DGln-DLys-DPro-DAsp-DLeu-DCys)-NH2 [NR58-3.14.3]
half-life period of clearance from blood plasma ([3]; after intravenous injection): less than 30 minutes | oral bioavailability ([3]; in vivo, po): not orally bioavailable
